{"source": "paper PMC8371461", "about": "(Frontiers in Pharmacology, 2021)", "key": {"[1]": {"target": "T1, PAK7 (Homo sapiens, UniProt Q9P286)", "T1 construct": "purchased DiscoverX (KINOMEscan)", "assay": "kinome scan", "assay_type": "binding", "conditions": "10 µM"}, "[2]": {"target": "T2, LYN (Homo sapiens, UniProt P07948)", "T2 construct": "purchased DiscoverX (KINOMEscan)", "assay": "kinome scan", "assay_type": "binding", "conditions": "10 µM"}, "[3]": {"target": "T3, MRCKA (Homo sapiens, UniProt Q5VT25)", "T3 construct": "purchased DiscoverX (KINOMEscan)", "assay": "kinome scan", "assay_type": "binding", "conditions": "10 µM"}, "[4]": {"target": "T4, PIK4CB (Homo sapiens, UniProt Q9UBF8)", "T4 construct": "purchased DiscoverX (KINOMEscan)", "assay": "kinome scan", "assay_type": "binding"}, "[5]": {"target": "T5, RSK3(Kin.Dom.2-C-terminal) (Homo sapiens, UniProt Q15349)", "T5 construct": "RSK3(Kin.Dom.2-C-terminal); purchased DiscoverX (KINOMEscan)", "T5 sequence (Q15349 415-672 limits assumed)": "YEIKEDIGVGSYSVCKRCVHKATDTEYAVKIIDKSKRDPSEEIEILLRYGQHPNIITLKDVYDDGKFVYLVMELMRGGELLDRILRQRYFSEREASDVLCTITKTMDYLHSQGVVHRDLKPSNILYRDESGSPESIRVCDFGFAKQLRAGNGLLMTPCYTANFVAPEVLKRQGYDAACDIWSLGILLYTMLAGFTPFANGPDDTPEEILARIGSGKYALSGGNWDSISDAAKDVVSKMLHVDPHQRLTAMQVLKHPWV", "assay": "kinome scan", "assay_type": "binding", "conditions": "10 µM"}, "[6]": {"target": "T6, BRSK2 (Homo sapiens, UniProt Q8IWQ3)", "T6 construct": "purchased DiscoverX (KINOMEscan)", "assay": "kinome scan", "assay_type": "binding", "conditions": "10 µM"}, "[7]": {"target": "T7, MRCKB (Homo sapiens, UniProt Q9Y5S2)", "T7 construct": "purchased DiscoverX (KINOMEscan)", "assay": "kinome scan", "assay_type": "binding", "conditions": "10 µM"}, "[8]": {"target": "T8, RIPK4 (Homo sapiens, UniProt P57078)", "T8 construct": "purchased DiscoverX (KINOMEscan)", "assay": "kinome scan", "assay_type": "binding", "conditions": "10 µM"}, "[9]": {"target": "T9, ABL1-phosphorylated (Homo sapiens, UniProt P00519)", "T9 construct": "purchased DiscoverX (KINOMEscan)", "assay": "kinome scan", "assay_type": "binding", "conditions": "10 µM"}, "[10]": {"target": "T10, ACVRL1 (Homo sapiens, UniProt P37023)", "T10 construct": "purchased DiscoverX (KINOMEscan)", "T10 sequence (P37023 22-503)": "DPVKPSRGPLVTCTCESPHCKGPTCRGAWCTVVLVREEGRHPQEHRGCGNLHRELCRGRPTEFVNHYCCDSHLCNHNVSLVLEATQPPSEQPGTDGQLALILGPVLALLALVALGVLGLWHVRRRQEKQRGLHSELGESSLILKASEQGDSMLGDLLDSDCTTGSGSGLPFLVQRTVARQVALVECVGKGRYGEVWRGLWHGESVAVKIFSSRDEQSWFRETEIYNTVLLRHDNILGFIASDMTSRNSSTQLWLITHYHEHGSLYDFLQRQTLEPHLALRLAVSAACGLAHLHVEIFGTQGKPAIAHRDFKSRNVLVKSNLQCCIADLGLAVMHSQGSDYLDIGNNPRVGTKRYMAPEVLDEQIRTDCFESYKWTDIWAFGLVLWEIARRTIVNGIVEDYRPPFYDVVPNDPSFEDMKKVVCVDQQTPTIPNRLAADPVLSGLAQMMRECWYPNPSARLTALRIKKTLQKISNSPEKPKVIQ", "assay": "kinome scan", "assay_type": "binding", "conditions": "10 µM"}, "[11]": {"target": "T11, p38-alpha (Homo sapiens, UniProt Q16539)", "T11 construct": "purchased DiscoverX (KINOMEscan)", "assay": "kinome scan", "assay_type": "binding", "conditions": "10 µM"}, "[12]": {"target": "T12, PAK2 (Homo sapiens, UniProt Q13177)", "T12 construct": "purchased DiscoverX (KINOMEscan)", "assay": "kinome scan", "assay_type": "binding", "conditions": "10 µM"}, "[13]": {"target": "T13, PRKCI (Homo sapiens, UniProt P41743)", "T13 construct": "purchased DiscoverX (KINOMEscan)", "assay": "kinome scan", "assay_type": "binding", "conditions": "10 µM"}, "[14]": {"target": "T14, TAOK3 (Homo sapiens, UniProt Q9H2K8)", "T14 construct": "purchased DiscoverX (KINOMEscan)", "assay": "kinome scan", "assay_type": "binding", "conditions": "10 µM"}, "[15]": {"target": "T15, ABL1(H396P)-nonphosphorylated (Homo sapiens, UniProt P00519, H396P)", "T15 construct": "purchased DiscoverX (KINOMEscan)", "assay": "kinome scan", "assay_type": "binding", "conditions": "10 µM"}, "[16]": {"target": "T16, PRKG1 (Homo sapiens, UniProt Q13976)", "T16 construct": "purchased DiscoverX (KINOMEscan)", "assay": "kinome scan", "assay_type": "binding", "conditions": "10 µM"}, "[17]": {"target": "T17, ERK1 (Homo sapiens, UniProt P27361)", "T17 construct": "purchased DiscoverX (KINOMEscan)", "assay": "kinome scan", "assay_type": "binding", "conditions": "10 µM"}, "[18]": {"target": "T18, MAK (Homo sapiens, UniProt P20794)", "T18 construct": "purchased DiscoverX (KINOMEscan)", "assay": "kinome scan", "assay_type": "binding", "conditions": "10 µM"}, "[19]": {"target": "T19, ITK (Homo sapiens, UniProt Q08881)", "T19 construct": "purchased DiscoverX (KINOMEscan)", "assay": "kinome scan", "assay_type": "binding", "conditions": "10 µM"}, "[20]": {"target": "T20, KIT(L576P) (Homo sapiens, UniProt P10721, L576P)", "T20 construct": "purchased DiscoverX (KINOMEscan)", "assay": "kinome scan", "assay_type": "binding", "conditions": "10 µM"}, "[21]": {"target": "T21, ERBB2 (Homo sapiens, UniProt P04626)", "T21 construct": "purchased DiscoverX (KINOMEscan)", "T21 sequence (P04626 23-1255)": "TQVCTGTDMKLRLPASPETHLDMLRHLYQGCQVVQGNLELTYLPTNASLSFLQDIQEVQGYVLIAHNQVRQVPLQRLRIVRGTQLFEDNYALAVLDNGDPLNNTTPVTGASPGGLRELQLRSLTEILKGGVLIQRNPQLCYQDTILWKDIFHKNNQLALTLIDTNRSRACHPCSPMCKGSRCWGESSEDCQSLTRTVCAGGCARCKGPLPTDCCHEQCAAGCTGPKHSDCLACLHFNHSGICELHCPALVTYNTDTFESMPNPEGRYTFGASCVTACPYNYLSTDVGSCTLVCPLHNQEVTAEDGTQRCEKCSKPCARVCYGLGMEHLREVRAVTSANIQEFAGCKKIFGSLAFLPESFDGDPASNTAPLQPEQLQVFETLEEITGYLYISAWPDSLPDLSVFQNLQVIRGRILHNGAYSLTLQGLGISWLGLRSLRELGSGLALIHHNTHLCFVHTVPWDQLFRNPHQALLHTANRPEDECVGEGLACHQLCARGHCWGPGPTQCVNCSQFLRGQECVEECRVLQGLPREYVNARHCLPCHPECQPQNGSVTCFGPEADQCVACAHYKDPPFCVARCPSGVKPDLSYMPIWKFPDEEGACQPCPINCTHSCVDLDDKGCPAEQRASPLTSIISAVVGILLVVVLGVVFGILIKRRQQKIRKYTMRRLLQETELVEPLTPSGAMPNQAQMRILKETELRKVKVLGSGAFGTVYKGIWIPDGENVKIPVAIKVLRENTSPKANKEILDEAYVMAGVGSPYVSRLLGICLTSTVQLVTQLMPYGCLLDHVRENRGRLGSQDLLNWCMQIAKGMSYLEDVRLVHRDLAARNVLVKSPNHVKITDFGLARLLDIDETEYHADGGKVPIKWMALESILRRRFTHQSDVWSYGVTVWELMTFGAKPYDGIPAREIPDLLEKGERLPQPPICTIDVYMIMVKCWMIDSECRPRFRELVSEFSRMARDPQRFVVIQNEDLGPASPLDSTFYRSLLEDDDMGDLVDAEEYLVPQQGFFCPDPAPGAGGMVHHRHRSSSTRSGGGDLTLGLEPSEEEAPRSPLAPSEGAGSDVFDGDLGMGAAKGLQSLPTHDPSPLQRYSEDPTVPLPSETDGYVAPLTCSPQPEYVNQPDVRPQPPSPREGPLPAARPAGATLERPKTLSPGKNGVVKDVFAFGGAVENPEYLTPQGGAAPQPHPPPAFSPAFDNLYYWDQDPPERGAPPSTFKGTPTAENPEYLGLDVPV", "assay": "kinome scan", "assay_type": "binding", "conditions": "10 µM"}, "[22]": {"target": "T22, BMPR1A (Homo sapiens, UniProt P36894)", "T22 construct": "purchased DiscoverX (KINOMEscan)", "T22 sequence (P36894 24-532)": "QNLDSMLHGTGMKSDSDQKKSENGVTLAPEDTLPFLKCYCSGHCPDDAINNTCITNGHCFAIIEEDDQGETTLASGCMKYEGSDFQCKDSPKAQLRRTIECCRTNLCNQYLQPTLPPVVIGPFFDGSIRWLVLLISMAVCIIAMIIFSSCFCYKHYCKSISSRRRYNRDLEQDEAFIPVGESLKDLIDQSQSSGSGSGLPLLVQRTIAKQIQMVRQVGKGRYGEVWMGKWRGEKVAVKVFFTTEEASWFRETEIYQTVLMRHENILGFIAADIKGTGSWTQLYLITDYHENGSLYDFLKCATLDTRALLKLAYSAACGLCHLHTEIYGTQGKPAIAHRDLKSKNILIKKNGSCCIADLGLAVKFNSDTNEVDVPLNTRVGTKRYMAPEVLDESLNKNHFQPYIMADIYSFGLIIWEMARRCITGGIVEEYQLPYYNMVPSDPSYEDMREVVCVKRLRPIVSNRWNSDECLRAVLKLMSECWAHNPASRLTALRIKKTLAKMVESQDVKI", "assay": "kinome scan", "assay_type": "binding", "conditions": "10 µM"}, "[23]": {"target": "T23, RPS6KA5(Kin.Dom.1-N-terminal) (Homo sapiens, UniProt O75582)", "T23 construct": "RPS6KA5(Kin.Dom.1-N-terminal); purchased DiscoverX (KINOMEscan)", "T23 sequence (O75582 49-387 limits assumed)": "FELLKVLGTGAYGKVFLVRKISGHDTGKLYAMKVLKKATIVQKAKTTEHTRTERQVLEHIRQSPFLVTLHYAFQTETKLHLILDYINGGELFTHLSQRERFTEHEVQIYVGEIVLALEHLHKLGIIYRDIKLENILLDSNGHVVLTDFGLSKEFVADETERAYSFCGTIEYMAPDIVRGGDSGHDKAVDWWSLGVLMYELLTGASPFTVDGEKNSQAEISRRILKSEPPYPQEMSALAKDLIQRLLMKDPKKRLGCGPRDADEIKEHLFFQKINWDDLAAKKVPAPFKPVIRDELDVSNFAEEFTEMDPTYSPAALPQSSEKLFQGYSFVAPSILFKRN", "assay": "kinome scan", "assay_type": "binding", "conditions": "10 µM"}, "[24]": {"target": "T24, AKT2 (Homo sapiens, UniProt P31751)", "T24 construct": "purchased DiscoverX (KINOMEscan)", "assay": "kinome scan", "assay_type": "binding", "conditions": "10 µM"}, "[25]": {"system": "Tau Fibril Formation, Thioflavin T Binding", "parameters": "method as in CHEMBL1614421", "conditions": "reported activity, data mining; ref CHEMBL1614421; cited from earlier work"}, "[26]": {"target": "T25, LATS2 (Homo sapiens, UniProt Q9NRM7)", "T25 construct": "purchased DiscoverX (KINOMEscan)", "assay": "kinome scan", "assay_type": "binding", "conditions": "10 µM"}, "[27]": {"target": "T26, DMPK (Homo sapiens, UniProt Q09013)", "T26 construct": "purchased DiscoverX (KINOMEscan)", "assay": "kinome scan", "assay_type": "binding", "conditions": "10 µM"}, "[28]": {"target": "T27, LOK (Homo sapiens, UniProt O94804)", "T27 construct": "purchased DiscoverX (KINOMEscan)", "assay": "kinome scan", "assay_type": "binding", "conditions": "10 µM"}, "[29]": {"target": "T28, MLK3 (Homo sapiens, UniProt Q16584)", "T28 construct": "purchased DiscoverX (KINOMEscan)", "assay": "kinome scan", "assay_type": "binding", "conditions": "10 µM"}, "[30]": {"target": "T29, KIT(V559DT670I) (Homo sapiens, UniProt P10721, T670I/V559D)", "T29 construct": "purchased DiscoverX (KINOMEscan)", "T29 sequence (P10721 544-976 V559D/T670I limits assumed)": "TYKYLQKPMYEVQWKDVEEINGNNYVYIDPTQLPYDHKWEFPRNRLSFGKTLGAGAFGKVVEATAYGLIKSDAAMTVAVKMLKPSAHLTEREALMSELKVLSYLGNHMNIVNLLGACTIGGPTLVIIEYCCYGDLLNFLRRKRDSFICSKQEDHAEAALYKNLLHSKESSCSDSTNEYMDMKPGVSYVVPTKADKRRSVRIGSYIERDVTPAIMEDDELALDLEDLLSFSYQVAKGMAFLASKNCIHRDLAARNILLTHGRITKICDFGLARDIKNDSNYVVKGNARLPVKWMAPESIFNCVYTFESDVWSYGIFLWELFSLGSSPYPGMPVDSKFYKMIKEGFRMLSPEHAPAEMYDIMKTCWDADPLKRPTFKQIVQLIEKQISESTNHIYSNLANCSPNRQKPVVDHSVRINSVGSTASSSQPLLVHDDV", "assay": "kinome scan", "assay_type": "binding", "conditions": "10 µM"}, "[31]": {"target": "T30, MAST1 (Homo sapiens, UniProt Q9Y2H9)", "T30 construct": "purchased DiscoverX (KINOMEscan)", "assay": "kinome scan", "assay_type": "binding", "conditions": "10 µM"}, "[32]": {"target": "T31, MARK2 (Homo sapiens, UniProt Q7KZI7)", "T31 construct": "purchased DiscoverX (KINOMEscan)", "assay": "kinome scan", "assay_type": "binding", "conditions": "10 µM"}, "[33]": {"target": "T32, AAK1 (Homo sapiens, UniProt Q2M2I8)", "T32 construct": "purchased DiscoverX (KINOMEscan)", "assay": "kinome scan", "assay_type": "binding", "conditions": "10 µM"}, "[34]": {"target": "T33, BRAF(V600E) (Homo sapiens, UniProt P15056, V600E)", "T33 construct": "purchased DiscoverX (KINOMEscan)", "T33 sequence (P15056 whole entry V600E)": "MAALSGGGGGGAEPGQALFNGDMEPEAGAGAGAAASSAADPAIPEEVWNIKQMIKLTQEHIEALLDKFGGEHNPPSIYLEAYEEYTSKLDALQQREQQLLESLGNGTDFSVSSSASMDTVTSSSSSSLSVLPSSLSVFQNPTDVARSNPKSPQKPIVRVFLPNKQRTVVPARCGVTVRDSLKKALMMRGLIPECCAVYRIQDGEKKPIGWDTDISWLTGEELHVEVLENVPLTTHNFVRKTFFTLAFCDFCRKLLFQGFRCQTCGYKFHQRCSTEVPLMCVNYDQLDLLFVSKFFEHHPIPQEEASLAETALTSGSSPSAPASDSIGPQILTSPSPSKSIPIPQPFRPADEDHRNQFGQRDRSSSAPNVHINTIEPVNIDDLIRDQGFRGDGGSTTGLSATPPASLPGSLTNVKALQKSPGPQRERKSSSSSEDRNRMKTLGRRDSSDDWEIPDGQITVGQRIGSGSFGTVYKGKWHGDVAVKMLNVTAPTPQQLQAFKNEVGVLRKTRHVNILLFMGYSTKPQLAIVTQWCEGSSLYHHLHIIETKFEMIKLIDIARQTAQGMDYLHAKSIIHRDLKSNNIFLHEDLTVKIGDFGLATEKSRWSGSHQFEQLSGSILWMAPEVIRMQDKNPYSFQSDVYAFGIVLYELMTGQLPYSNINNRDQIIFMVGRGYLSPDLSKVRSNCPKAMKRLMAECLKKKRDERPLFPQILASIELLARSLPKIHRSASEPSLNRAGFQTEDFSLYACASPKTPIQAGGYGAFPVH", "assay": "kinome scan", "assay_type": "binding", "conditions": "10 µM"}, "[35]": {"target": "T34, FLT4 (Homo sapiens, UniProt P35916)", "T34 construct": "purchased DiscoverX (KINOMEscan)", "assay": "kinome scan", "assay_type": "binding", "conditions": "10 µM"}, "[36]": {"target": "T35, LCK (Homo sapiens, UniProt P06239)", "T35 construct": "purchased DiscoverX (KINOMEscan)", "assay": "kinome scan", "assay_type": "binding", "conditions": "10 µM"}, "[37]": {"target": "T36, EPHA3 (Homo sapiens, UniProt P29320)", "T36 construct": "purchased DiscoverX (KINOMEscan)", "T36 sequence (P29320 21-983)": "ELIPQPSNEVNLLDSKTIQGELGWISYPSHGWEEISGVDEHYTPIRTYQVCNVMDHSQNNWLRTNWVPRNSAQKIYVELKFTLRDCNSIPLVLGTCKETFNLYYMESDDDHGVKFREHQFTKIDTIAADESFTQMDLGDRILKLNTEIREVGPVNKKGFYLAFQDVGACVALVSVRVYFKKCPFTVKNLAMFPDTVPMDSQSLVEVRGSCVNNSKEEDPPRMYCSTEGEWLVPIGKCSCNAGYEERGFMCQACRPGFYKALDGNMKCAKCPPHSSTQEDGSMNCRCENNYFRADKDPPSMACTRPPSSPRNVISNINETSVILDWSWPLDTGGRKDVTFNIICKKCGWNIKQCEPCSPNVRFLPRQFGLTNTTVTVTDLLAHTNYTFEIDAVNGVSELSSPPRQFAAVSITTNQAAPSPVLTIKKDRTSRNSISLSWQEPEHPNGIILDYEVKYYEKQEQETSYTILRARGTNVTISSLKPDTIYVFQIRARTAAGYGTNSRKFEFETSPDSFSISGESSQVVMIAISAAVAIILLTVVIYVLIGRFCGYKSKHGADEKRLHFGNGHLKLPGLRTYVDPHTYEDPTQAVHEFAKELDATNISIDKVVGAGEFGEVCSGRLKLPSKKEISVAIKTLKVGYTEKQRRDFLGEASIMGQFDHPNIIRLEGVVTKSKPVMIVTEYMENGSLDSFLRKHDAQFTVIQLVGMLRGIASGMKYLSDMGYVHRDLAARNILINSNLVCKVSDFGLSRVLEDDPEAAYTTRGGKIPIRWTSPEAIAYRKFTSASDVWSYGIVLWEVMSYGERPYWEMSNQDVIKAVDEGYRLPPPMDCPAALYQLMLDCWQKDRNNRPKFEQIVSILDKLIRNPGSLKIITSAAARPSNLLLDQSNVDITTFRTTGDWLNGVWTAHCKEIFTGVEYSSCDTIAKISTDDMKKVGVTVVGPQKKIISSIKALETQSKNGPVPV", "assay": "kinome scan", "assay_type": "binding", "conditions": "10 µM"}, "[38]": {"target": "T37, TYRO3 (Homo sapiens, UniProt Q06418)", "T37 construct": "purchased DiscoverX (KINOMEscan)", "assay": "kinome scan", "assay_type": "binding", "conditions": "10 µM"}, "[39]": {"target": "T38, PHKG1 (Homo sapiens, UniProt Q16816)", "T38 construct": "purchased DiscoverX (KINOMEscan)", "assay": "kinome scan", "assay_type": "binding", "conditions": "10 µM"}, "[40]": {"target": "T39, OSR1 (Homo sapiens, UniProt O95747)", "T39 construct": "purchased DiscoverX (KINOMEscan)", "assay": "kinome scan", "assay_type": "binding", "conditions": "10 µM"}, "[41]": {"target": "T40, EGFR(L747-S752delP753S) (Homo sapiens, UniProt P00533, DEL747-752/P753S)", "T40 construct": "purchased DiscoverX (KINOMEscan)", "assay": "kinome scan", "assay_type": "binding", "conditions": "10 µM"}}}
{"smiles": "Nc1ccc(N=Nc2ccccc2)c(N)n1", "note": "[phenazopyridine, 2,6-diamino-3-(phenylazo)pyridine]", "values": [{"measurement": "kinase inhibition", "setting": "[1]", "value": 100}, {"measurement": "kinase inhibition", "setting": "[2]", "value": 82}, {"measurement": "kinase inhibition", "setting": "[3]", "value": 99}, {"measurement": "remaining kinase binding (% of control)", "setting": "[4]; 10 µM", "value": 4.6}, {"measurement": "remaining binding at 10 µM", "setting": "[4]; read-out: % Of control", "value": 4.6, "unit": "%"}, {"measurement": "kinase inhibition", "setting": "[5]", "value": 100}, {"measurement": "kinase inhibition", "setting": "[6]", "value": 90}, {"measurement": "kinase inhibition", "setting": "[7]", "value": 100}, {"measurement": "kinase inhibition", "setting": "[8]", "value": 100}, {"measurement": "kinase inhibition", "setting": "[9]", "value": 67}, {"measurement": "kinase inhibition", "setting": "[10]", "value": 71}, {"measurement": "kinase inhibition", "setting": "[11]", "value": 100}, {"measurement": "kinase inhibition", "setting": "[12]", "value": 97}, {"measurement": "kinase inhibition", "setting": "[13]", "value": 100}, {"measurement": "kinase inhibition", "setting": "[14]", "value": 79}, {"measurement": "kinase inhibition", "setting": "[15]", "value": 48}, {"measurement": "kinase inhibition", "setting": "[16]", "value": 92}, {"measurement": "kinase inhibition", "setting": "[17]", "value": 95}, {"measurement": "kinase inhibition", "setting": "[18]", "value": 100}, {"measurement": "kinase inhibition", "setting": "[19]", "value": 97}, {"measurement": "kinase inhibition", "setting": "[20]", "value": 44}, {"measurement": "kinase inhibition", "setting": "[21]", "value": 64}, {"measurement": "kinase inhibition", "setting": "[22]", "value": 98}, {"measurement": "kinase inhibition", "setting": "[23]", "value": 100}, {"measurement": "kinase inhibition", "setting": "[24]", "value": 100}, {"measurement": "Concentration", "setting": "[25]", "value": 3.9, "unit": "µM"}, {"measurement": "kinase inhibition", "setting": "[26]", "value": 100}, {"measurement": "kinase inhibition", "setting": "[27]", "value": 89}, {"measurement": "kinase inhibition", "setting": "[28]", "value": 100}, {"measurement": "kinase inhibition", "setting": "[29]", "value": 100}, {"measurement": "kinase inhibition", "setting": "[30]", "value": 71}, {"measurement": "kinase inhibition", "setting": "[31]", "value": 85}, {"measurement": "kinase inhibition", "setting": "[32]", "value": 100}, {"measurement": "kinase inhibition", "setting": "[33]", "value": 79}, {"measurement": "kinase inhibition", "setting": "[34]", "value": 92}, {"measurement": "kinase inhibition", "setting": "[35]", "value": 100}, {"measurement": "kinase inhibition", "setting": "[36]", "value": 96}, {"measurement": "kinase inhibition", "setting": "[37]", "value": 81}, {"measurement": "kinase inhibition", "setting": "[38]", "value": 94}, {"measurement": "kinase inhibition", "setting": "[39]", "value": 98}, {"measurement": "kinase inhibition", "setting": "[40]", "value": 100}, {"measurement": "kinase inhibition", "setting": "[41]", "value": 73}]}
